Reference: patent US5489609A (Zaidan Hoijn Seisan Kaihatsu Kagaku Kenkyusho, priority 1992, dated 1996)

Assays:
[1] = system: isolated liver cells of rats; test: Disorder of isolated liver cells (carbon tetrachloride vapor; ALT and AST leached out); format: cell-based; settings: for ALT, mean ± S.D. / AST, mean ± S.D.: 37° C., 30 min, * p < 0.05
Protocol: Isolated liver cells of rats were prepared by means of the Segren's collagenase irrigation method, whereby a liver cell suspension was prepared to a concentration of […]. Into 2 ml of the suspension placed in an Erlenmeyer flask was put a test tube of about 0.5 ml capacity containing a 25% carbon tetrachloride solution in olive oil to saturate the reaction system with carbon tetrachloride vapor, and after the flask was tightly stoppered, preincubation was carried out at 37° C. for 30 min. One ml of a solution of the test compound in Hunk's solution was added to the suspension of liver cells, while 1 ml of Hunk's solution was added to a control. After the reaction was allowed to proceed at 37° C. for 30 min, a specifically determined volume of the reaction solution was pipetted out and immediately centrifuged under 500 g for 30 seconds, and ALT and AST leached out into the supernatant liquid were determined for activity by the Lippie method.

acetaldehyde toxicity = test: Protective activity against acetaldehyde toxicity (death rate within 24 hours); format: in vivo, Rats; settings: for Death rate / No. of dead animals (n/10): 30 min before acetaldehyde 1,200 mg/kg, 24 h
Protocol: Rats kept fasting with a supply of drinking water were weighed and divided into groups in such a manner that the mean body weight was uniform among the groups, with each group consisting of 10 heads. The rats were given acetaldehyde orally at a dose of 1,200 mg/kg, and the death rate within 24 hours was determined, wherein the test drug substances were administered orally 30 min before the application of acetaldehyde, with the vehicle (0.5% aqueous sodium carboxymethylcellulose) alone being given to a control group.

[2] = system: Hepatopathy in mice (carbon tetrachloride); test: Anti-hepatitis test: hepatopathy in mice (carbon tetrachloride); format: in vivo, ddy strain male mice; settings: for ALT, mean ± S.D. / AST, mean ± S.D.: 200 mg/kg orally 3 h after carbon tetrachloride, blood 24 h after carbon tetrachloride, * p < 0.05; for suppressory activity (hepatopathy in mice): 200 mg/kg orally, in words
Protocol: A group of 8 ddy strain male mice (weighing about 30 g) kept fasting from the previous day was treated by intraperitoneal injection of 0.5% carbon tetrachloride in olive oil at a dose of 0.6 ml and thereafter allowed free access to food. Three hours after the administration of carbon tetrachloride, the test compound suspended in powdered gum arabic was given to the animals orally at a dose of 200 mg/kg, and blood samples were drawn from the mice under anesthesia with ether through the abdominal descending aorta 24 hours after the administration of carbon tetrachloride. The collected blood was centrifuged at a rate of 3,000 rpm for 15 min, followed by measurement of the activities of aspartate transaminase (AST) and alanine transaminase (ALT) by means of the Lippie method.

[3] = system: Rats of KBL Wistar strain; test: Acute toxicity test; format: in vivo; settings: 7 day period
Protocol: Rats of KBL Wistar strain (weighing about […]), divided into groups each consisting of 3 heads, were treated through oral administration of the test compound suspended in powder gum arabic, followed by observation for any abnormalities over a 7 day period to find the number of dead animals.

[4] = Pharmacological tests (general statement on anti-hepatitis, liver function and anti-ulcer activity); format: in vivo; settings: in words
[5] = system: Stomach injury through water-immersion constraint stress; test: Anti-ulcer test: stomach injury through water-immersion constraint stress; format: in vivo, male rats of KBL Wistar strain; settings: for UD50 (mg/kg) (95% C.L.): oral, 30 min before water-soaking constraint
Protocol: The rats were divided into groups each consisting of 8 heads in such a way that their mean body weights were nearly uniform among the groups, stress-loaded by soaking the animals placed in a stress cage of Univ. of Tokyo type in a water tank at 23° C. up to the xiphoid and then sacrificed through cervical vertebrae dislocation 7.5 hours later. The stomachs were removed and treated with formalin, and individual ulcers formed in the glandular portion of the stomach were measured in length (mm), with the measured ulcer lengths being summed for each rat. The test compound, suspended in a 0.5% aqueous solution of sodium carboxymethylcellulose, was given to the test group orally at a dose of 10 ml/kg body weight 30 min before the water-soaking constraint, whereas the vehicle alone was applied to a control group.

[6] = system: Stomach injury with hydrochloric acid/ethanol; test: Anti-ulcer test: stomach injury with hydrochloric acid/ethanol; format: in vivo, male rats of KBL Wistar strain; settings: for UD50 (mg/kg) (95% C.L.): oral, 30 min before hydrochloric acid/ethanol
Protocol: The rats were divided into groups each consisting of 8 heads in such a way that their mean body weights were nearly uniform among the groups, treated by oral administration of hydrochloric acid/ethanol (0.15 mole hydrochloric acid solution in 80% ethanol) at a dose of 5 ml/kg body weight and sacrificed through cervical vertebrae dislocation 1 hour after administration. The stomachs were removed and treated with formalin, and individual ulcers formed in the glandular portion of the stomach were measured in length (mm), with the measured ulcer lengths summed for each rat. The test compound was suspended in a 0.5% aqueous solution of sodium carboxymethylcellulose, and the suspension was given to the test group orally at a dose of 10 ml/kg body weight 30 min before administration of hydrochloric acid/ethanol, whereas the vehicle (0.5% aqueous sodium carboxymethyl-cellulose) alone was applied to a control group.

[7] = conc. of test soln. 0.0125 mg/dl
[8] = conc. of test soln. 0.025 mg/dl
[9] = 50 mg/kg orally, vs Vehicle No. 1
[10] = 100 mg/kg orally, vs Vehicle No. 2
[11] = 150 mg/kg orally, vs Vehicle No. 3

## NCCS(=O)(=O)O [2-Aminoethanesulfonic acid]
[1]; [7]
  ALT, mean ± S.D.: 847.6 ± 60.4 IU
  AST, mean ± S.D.: 338.8 ± 37.1 IU
[1]; [8]
  ALT, mean ± S.D.: 869.8 ± 87.6 IU
  AST, mean ± S.D.: 309.8 ± 32.4 IU
[1]; conc. of test soln. 0.05 mg/dl
  ALT, mean ± S.D.: 849.1 ± 60.2 IU
  AST, mean ± S.D.: 296.3 ± 30.5 IU
[1]; conc. of test soln. 0.1 mg/dl
  ALT, mean ± S.D.: 867.7 ± 158.8 IU
  AST, mean ± S.D.: 318.8 ± 49.5 IU
Acetaldehyde toxicity; 250 mg/kg orally
  Death rate: 60%
  No. of dead animals (n/10): 6/10
Acetaldehyde toxicity; 500 mg/kg orally
  Death rate: 50%
  No. of dead animals (n/10): 5/10
[2]
  ALT, mean ± S.D.: 14609.6 ± 1684.5 IU
  AST, mean ± S.D.: 12885.2 ± 2468.3 IU
  suppressory activity (hepatopathy in mice): none of 2-aminoethanesulfonic acid, glutathione and glycyrrhizin that were used as controls at the same dose developed suppressory activity

## NCCS(=O)(=O)[O-].NCCS(=O)(=O)[O-].[Zn+2] [TTZ, Bis(2-aminoethanesulfonic acid)zinc]
[3]; 1,250 mg/kg oral
  Nd/No (No. of dead animals / total No.): 0/3
[3]; 2,500 mg/kg oral
  Nd/No (No. of dead animals / total No.): 0/3
[3]; 5,000 mg/kg oral
  Nd/No (No. of dead animals / total No.): 0/3
[3]; doses up to 5,000 mg/kg oral, in words
  death of animals: did not cause any animal to die
[4]
  anti-hepatitis, liver function improving and anti-ulcer activity: more markedly potent anti-ulcer activity as well as comparable anti-hepatitis and liver function improving activities
[1]; [7]
  ALT, mean ± S.D.: 944.7 ± 61.7 IU
  AST, mean ± S.D.: 327.9 ± 36.6 IU
[1]; [8]
  ALT, mean ± S.D.: 637.2 ± 93.7 IU
  AST, mean ± S.D.: 125.7 ± 48.2 IU
[1]; conc. of test soln. 0.05 mg/dl
  ALT, mean ± S.D.: 649.1 ± 42.4 IU
  AST, mean ± S.D.: 68.2 ± 7.5 IU
[1]; conc. of test soln. 0.1 mg/dl
  ALT, mean ± S.D.: 525.1 ± 26.0 IU
  AST, mean ± S.D.: 44.3 ± 11.1 IU
[1]; in words
  suppressory activity (isolated liver cells): suppressory activity equal to that of FTZ but clearly superior to that of 2-aminoethanesulfonic acid alone
[5]; 50 mg/kg orally
  Incidence of ulcer: 8/8
  Ulcer coefficient (mm) mean ± S.E.: 19.9 ± 4.6 mm
[5]; [9]
  Suppression %: 37.6%
[5]; 100 mg/kg orally
  Incidence of ulcer: 8/8
[5]; 100 mg/kg orally, * p < 0.01
  Ulcer coefficient (mm) mean ± S.E.: 9.8 ± 2.3 mm
[5]; [10]
  Suppression %: 57.2%
[5]; 150 mg/kg orally
  Incidence of ulcer: 8/8
[5]; 150 mg/kg orally, ** p < 0.01
  Ulcer coefficient (mm) mean ± S.E.: 7.6 ± 1.4 mm
[5]; [11]
  Suppression %: 78.1%
[5]
  UD50 (mg/kg) (95% C.L.): 72.8 mg/kg
Acetaldehyde toxicity; 150 mg/kg orally
  Death rate: 30%
  No. of dead animals (n/10): 3/10
Acetaldehyde toxicity; 300 mg/kg orally
  Death rate: 0%
  No. of dead animals (n/10): 0/10
Acetaldehyde toxicity; in words
  protective activity against the lethal toxicity of acetaldehyde: distinct protective activity against the lethal toxicity of acetaldehyde at lower doses than FTZ, which activity was shown to be more potent than that of 2-aminoethanesulfonic acid
[2]
  ALT, mean ± S.D.: 8899.4 ± 927.9 IU
  AST, mean ± S.D.: 7256.9 ± 1464.7 IU
  suppressory activity (hepatopathy in mice): significant suppressory activity equal to that of FTZ
[6]; 12.5 mg/kg orally
  Incidence of ulcer: 8/8
  Ulcer coefficient (mm) mean ± S.E.: 32.2 ± 4.9 mm
[6]; 12.5 mg/kg orally, vs Vehicle No. 3
  Suppression %: 11.8%
[6]; 25 mg/kg orally
  Incidence of ulcer: 8/8
  Ulcer coefficient (mm) mean ± S.E.: 24.6 ± 8.8 mm
[6]; 25 mg/kg orally, vs Vehicle No. 2
  Suppression %: 63.3%
[6]; 50 mg/kg orally
  Incidence of ulcer: 5/8
[6]; 50 mg/kg orally, * P < 0.01
  Ulcer coefficient (mm) mean ± S.E.: 2.2 ± 1.1 mm
[6]; [9]
  Suppression %: 96.3%
[6]; in words, refers to both anti-ulcer tests
  suppressory activity in the antiulcer test: improved suppressory activity in the antiulcer test, as compared with FTZ used as a control
[6]
  UD50 (mg/kg) (95% C.L.): 22.8 mg/kg

## CC1(C)[C@@H](O[C@H]2O[C@H](C(=O)O)[C@@H](O)[C@H](O)[C@H]2O[C@@H]2O[C@H](C(=O)O)[C@@H](O)[C@H](O)[C@H]2O)CC[C@]2(C)[C@H]3C(=O)C=C4[C@@H]5C[C@@](C)(C(=O)O)CC[C@]5(C)CC[C@@]4(C)[C@]3(C)CC[C@@H]12 [Glycyrrhizin]
[2]
  ALT, mean ± S.D.: 13362.1 ± 1753.1 IU
  AST, mean ± S.D.: 12367.6 ± 1102.1 IU
  suppressory activity (hepatopathy in mice): none of 2-aminoethanesulfonic acid, glutathione and glycyrrhizin that were used as controls at the same dose developed suppressory activity

## N[C@@H](CCC(=O)N[C@@H](CS)C(=O)NCC(=O)O)C(=O)O [Glutathione]
[2]
  ALT, mean ± S.D.: 12030.2 ± 1204.5 IU
  AST, mean ± S.D.: 11423.3 ± 1960.8 IU
  suppressory activity (hepatopathy in mice): none of 2-aminoethanesulfonic acid, glutathione and glycyrrhizin that were used as controls at the same dose developed suppressory activity

## NCCS(=O)(=O)O.NCCS(=O)(=O)O.NCCS(=O)(=O)[O-].NCCS(=O)(=O)[O-].[Zn+2] [FTZ, [Bis(2-aminoethanesulfonic acid).bis(2-aminoethanesulfonate)]zinc]
[3]; 1,250 mg/kg oral
  Nd/No (No. of dead animals / total No.): 0/3
[3]; 2,500 mg/kg oral
  Nd/No (No. of dead animals / total No.): 0/3
[3]; 5,000 mg/kg oral
  Nd/No (No. of dead animals / total No.): 0/3
[1]; [7]
  ALT, mean ± S.D.: 414.7 ± 36.2 IU
  AST, mean ± S.D.: 198.2 ± 22.5 IU
[1]; [8]
  ALT, mean ± S.D.: 459.0 ± 93.8 IU
  AST, mean ± S.D.: 186.8 ± 35.3 IU
[1]; conc. of test soln. 0.05 mg/dl
  ALT, mean ± S.D.: 389.2 ± 7.3 IU
  AST, mean ± S.D.: 79.4 ± 12.3 IU
[1]; conc. of test soln. 0.1 mg/dl
  ALT, mean ± S.D.: 435.7 ± 25.3 IU
  AST, mean ± S.D.: 33.5 ± 3.5 IU
[5]; 50 mg/kg orally
  Incidence of ulcer: 8/8
  Ulcer coefficient (mm) mean ± S.E.: 28.5 ± 4.6 mm
[5]; [9]
  Suppression %: 10.7%
[5]; 100 mg/kg orally
  Incidence of ulcer: 8/8
[5]; 100 mg/kg orally, * p < 0.01
  Ulcer coefficient (mm) mean ± S.E.: 14.4 ± 3.2 mm
[5]; [10]
  Suppression %: 37.1%
[5]; 150 mg/kg orally
  Incidence of ulcer: 8/8
[5]; 150 mg/kg orally, ** p < 0.01
  Ulcer coefficient (mm) mean ± S.E.: 17.9 ± 3.2 mm
[5]; [11]
  Suppression %: 48.4%
[5]
  UD50 (mg/kg) (95% C.L.): 146.9 mg/kg
Acetaldehyde toxicity; 250 mg/kg orally
  Death rate: 40%
  No. of dead animals (n/10): 4/10
Acetaldehyde toxicity; 500 mg/kg orally
  Death rate: 20%
  No. of dead animals (n/10): 2/10
[2]
  ALT, mean ± S.D.: 8597.1 ± 1450.4 IU
  AST, mean ± S.D.: 7024.7 ± 1113.4 IU
[6]; 50 mg/kg orally
  Incidence of ulcer: 8/8
[6]; 50 mg/kg orally, * P < 0.01
  Ulcer coefficient (mm) mean ± S.E.: 30.4 ± 7.8 mm
[6]; [9]
  Suppression %: 35.5%
[6]; 75 mg/kg orally
  Incidence of ulcer: 8/8
  Ulcer coefficient (mm) mean ± S.E.: 30.2 ± 10.2 mm
[6]; 75 mg/kg orally, vs Vehicle No. 2
  Suppression %: 42.5%
[6]; 150 mg/kg orally
  Incidence of ulcer: 8/8
[6]; 150 mg/kg orally, * P < 0.01
  Ulcer coefficient (mm) mean ± S.E.: 11.7 ± 4.7 mm
[6]; [11]
  Suppression %: 67.9%
[6]
  UD50 (mg/kg) (95% C.L.): 86.0 mg/kg
